The IC50 is the concentration that inhibits the measured activity by half. Usually EC50 stands for the concentration at which the effect is half-maximal. Usually CC50 stands for the concentration at which the toxic effect on the cells reaches its halfway point.

Values after ≈ are worked out from the molar mass of the structure shown.

The subject of data set [1] is Leishmania donovani. In words: Antileishmanial activity against Leishmania donovani promastigotes assessed as parasite growth inhibition incubated for 72 hrs by alamar blue staining based assay. It is filed as functional, organism-based. On the technique in general: The colour change of resazurin is a common sign of viable cells or microbes.
The subject of data set [2] is Leishmania major. Briefly: Antileishmanial activity against Leishmania major amastigotes assessed as reduction in parasite viability measured for 72 hrs by Giemsa-staining based microscopic analysis. It is filed as functional, organism-based.
Another data set concerns J774.A1. Briefly: Cytotoxicity against mouse J774.A1 cells assessed as reduction in cell viability incubated for 72 hrs by MTT assay. It is filed as functional. In general terms: Tetrazolium assays rely on reduction of a dye to a coloured formazan, in cell work by metabolically active cells.
A further data set concerns Leishmania infantum. Briefly: Antileishmanial activity against Leishmania infantum promastigote assessed as reduction in parasite growth after 72 hrs by MTT assay. Type of data set: functional, organism-based.
Data set [3] concerns Leishmania donovani. Briefly: Antileishmanial activity against Leishmania donovani MHOM/IN/00/DEVI assessed as inhibition of parasite growth measured for 48 hrs by MTT assay. Type of data set: functional, organism-based.
Data set [4] has as its system HepG2. In words: Cytotoxicity against human HepG2 cells assessed as reduction in cell growth measured after 48 hrs by SRB assay. Type of data set: functional. (In SRB staining, fixed cells bind dye roughly in proportion to their protein.)
The test system of data set [5] is Leishmania major. Briefly: Antileishmanial activity against Leishmania major promastigotes assessed as reduction in parasite viability measured after 72 hrs by Giemsa-staining based microscopic analysis. It is filed as functional, organism-based.
Data set [6] concerns Leishmania donovani. Briefly: Antileishmanial activity against Leishmania donovani MHOM/SD/62/1S-CL2D promastigotes assessed as reduction in parasite growth incubated for 24 hrs by resazurin dye based analysis. It is filed as functional, organism-based.
The test system of data set [7] is Leishmania donovani. Briefly: Antileishmanial activity against Leishmania donovani promastigotes assessed as inhibition of parasite growth. It is filed as functional, organism-based.
The subject of data set [8] is HepG2. In words: Antiproliferative activity against human HepG2 cells assessed as reduction in cell viability incubated for 72 hrs by MTT assay. Type of data set: functional, cell-based. The note with it: HepG2, 72 h.
Data set [9] has as its system Leishmania major. Briefly: Antileishmanial activity against Leishmania major assessed as reduction in parasite growth. It is filed as functional, organism-based.
A further data set relates to Leishmania braziliensis. In words: Antileishmanial activity against Leishmania braziliensis MHOM/BR/75/M2903 strain promastigotes assessed as reduction in cell viability incubated for 48 hrs by MTT assay. The note with it: MHOM/BR/75/M2903, 48 h. It is filed as functional, organism-based.
In data set [10] the test system is Leishmania donovani. Briefly: Antileishmanial activity against Leishmania donovani MHOM/SD/62/1S assessed as inhibition of parasite growth by resazurin/alamar blue fluorometric assay. It is filed as functional, organism-based.
The subject of data set [11] is Leishmania donovani. Briefly: Antileishmanial activity against Leishmania donovani 9515 promastigotes assessed as inhibition of parasite growth incubated for 48 hrs by resazurin dye based assay. It is filed as functional, organism-based. The note with it: Leishmania donovani, 9515, 48 h.
In data set [12] the test system is Leishmania major. Briefly: Antileishmanial activity against Leishmania major IR-173 promastigotes assessed as inhibition of parasite growth incubated for 48 hrs by resazurin dye based assay. It is filed as functional, organism-based. The note with it: IR-173, 48 h.
The subject of data set [13] is Leishmania donovani. In words: Antileishmanial activity against Leishmania donovani promastigotes assessed as parasitic proliferation inhibition incubated for 3 days by resazurin dye based assay. It is filed as functional, organism-based.
In data set [14] the test system is Leishmania donovani. In words: Antileishmanial activity against Leishmania donovani amastigotes infected in J774.A1 macrophage assessed as inhibition of parasite growth by luciferase assay. Type of data set: functional, organism-based.
Data set [15] relates to Leishmania donovani. In words: Antileishmanial activity against Leishmania donovani amastigotes infected in human THP-1 cells assessed as inhibition of parasite infection incubated for 72 hrs by DAPI staining based assay. Type of data set: functional, organism-based. The note with it: THP-1, 72 h.
The subject of data set [16] is Leishmania amazonensis. In words: Antileishmanial activity against Leishmania amazonensis promastigotes assessed as inhibition of parasite growth. More on the design: scale not given: the % may be the effect or the level left. Type of data set: functional.
For data set [17], the system named is Leishmania amazonensis. In words: Antileishmanial activity against Leishmania amazonensis IFLA/BR/1967/PH8 amastigotes infected in murine peritoneal macrophages incubated for 24 hrs by Giemsa staining based analysis. The note with it: IFLA/BR/1967/PH8, 24 h. Type of data set: functional, organism-based.
For the next data set, the system named is Leishmania aethiopica. Briefly: Antileishmanial activity against Leishmania aethiopica amastigotes assessed as inhibition of parasite growth measured after 24 hrs by Alamar blue based analysis. It is filed as functional, organism-based.
Data set [18] has as its system Leishmania donovani. In words: Antileishmanial activity against Leishmania donovani amastigotes. Type of data set: functional, organism-based.
Data set [19] deals with Leishmania donovani. In words: Antileishmanial activity against Leishmania donovani amastigotes assessed as parasite growth inhibition incubated for 72 hrs by MTS assay. It is filed as functional, organism-based.
Data set [20] is described as follows: Cytotoxicity against HEK293 cells assessed as reduction in cell viability incubated for 6 days by CellTiter-Glo luminescent cell viability assay. Type of data set: toxicity, cell-based. The note with it: human.
The next data set relates to Leishmania tropica. In words: Antileishmanial activity against Leishmania tropica promastigotes incubated for 24 hrs measured by alamar blue staining based fluorescence analysis. Type of data set: functional, organism-based.
Data set [21] in a line: Selectivity index, ratio of CC50 for human HepG2 cells to EC50 for GFP-expressing Leishmania infantum intracellular amastigotes infected in human THP-1 derived macrophage cells. Type of data set: toxicity, cell-based. The note with it: read-out: Ratio CC50/EC50.

Regarding `CN(C)CCCNC(=O)c1ccc2cc(Cl)ccc2n1`, the IC50 with Leishmania donovani [1] amounted to 5.85 µM.
On to `COC(=O)C1=C(C)NC(C)=C(C(=O)OC)C1c1cccc(Cl)c1`, for which the EC50 with Leishmania major [2] amounted to 5.4 µM.
As for `CC1(C)CC(=O)c2cc(CNC(=O)C/C=C/c3ccccc3)ccc2S1`, the CC50 in the data set on J774.A1 came out at 31.6 µM. In addition, the IC50 in the data set on Leishmania infantum was 10.5 µM.
For `C(=N/CCCN(N1CCCCC1)N1CCCCC1)/c1cc(-c2ccccc2)c2ccc3c(-c4ccccc4)cc(/C=N/CCCN(N4CCCCC4)N4CCCCC4)nc3c2n1`, the IC50 in the data set with Leishmania donovani [3] was found to be 2.52 µM. For the same compound, the CC50 in the data set on HepG2 [4] was found to be 1.64 µM.
Take `CCOC(=O)C1=C(C)NC(C)=C(C(=O)OCC)C1c1cccc(Cl)c1`: the EC50 with Leishmania major [2] worked out at 2.2 µM; in the data set on Leishmania major [5], 10.5 µM.
`CCCCCCCCCCCCCCCC(=O)CC(=O)N1CCC[C@@H]1COP(=O)([O-])OCC[N+](C)(C)C`: in the data set on Leishmania donovani [6], the IC50 amounted to 28.3 µM.
Consider `COc1ccc(Cn2c(C)cc(O)c(C(=O)Nc3ccc(C)cc3)c2=O)cc1`, for which the half-maximal inhibitory concentration (IC50) in the data set with Leishmania donovani [7] is 55 µM.
Turning to `Cc1cc(C)cc(-n2cc(CNC(=O)c3c(C)nc4c5ccccc5c5ccccc5n34)nn2)c1`, the EC50 in the data set with HepG2 [8] is under 30 µM.
Regarding `CCCCCCCCCCCCCCCC(=O)CC(=O)N1CCC[C@H]1COP(=O)([O-])OCC[N+](C)(C)C`, the IC50 in the data set on Leishmania donovani [6] stood at 52.6 µM.
On to `Cc1ccc2nc(C)c(C(=O)N3CCN(Cc4cn(-c5ccc(C(C)(C)C)cc5)nn4)CC3)n2c1`, for which, in the data set with Leishmania major [9], the IC50 was found to be 15.1 µM.
As to `COc1ccc(-n2cc(CCC(=O)OC3=C(C=C(C)C)C(=O)c4ccccc4C3=O)nn2)cc1`, the IC50 in the data set on Leishmania braziliensis turned out to be 15.9 µM.
In the case of `CCc1ccc(-n2cc(CN3CCN(C(=O)c4c(C)nc5ccc(Cl)cn45)CC3)nn2)cc1`, in the data set with Leishmania major [9], the IC50 was determined as 15.1 µM.
As to `O=C(N/N=C/c1ccc([N+](=O)[O-])o1)c1ccc(OCc2ccccc2)cc1`, the IC50 is 4.53 µM in the data set on Leishmania donovani [10], 4.48 µM in the data set with Leishmania donovani [11] and 38.5 µM in the data set on Leishmania major [12].
With `CCOC(=O)C1=CNC(=O)NC1c1ccc(C)cc1` (stereo in doubt; 82), the IC50 in the data set with Leishmania donovani [13] was 28.3 mg/L (≈ 109 µM).
As to `O=C(c1ccccc1)N1N=C(c2ccccc2)CC1c1cn(-c2ccc(Cl)cc2)nc1-c1ccccc1` (stereo not given), the IC50 in the data set on Leishmania donovani [14] was determined as 0.08 µM; in the data set on Leishmania donovani [15], 0.87 µM.
Regarding `C(=N/CCCN(N1CCOCC1)N1CCOCC1)/c1cc(-c2ccccc2)c2ccc3c(-c4ccccc4)cc(/C=N/CCCN(N4CCOCC4)N4CCOCC4)nc3c2n1`, the half-maximal inhibitory concentration (IC50) in the data set on Leishmania donovani [3] amounted to 2.52 µM. Moreover, the CC50 in the data set with HepG2 [4] was found to be 1.64 µM.
`CC(C)CC1NC(=S)NC1=O` (stereo not given): the Activity in the data set with Leishmania amazonensis [16] was determined as 32%.
For `Cc1cc(O)c(C(=O)Nc2ccccc2)c(=O)n1Cc1cccc(Cl)c1Cl`, in the data set with Leishmania donovani [7], the IC50 was 55 µM.
As to `O=C(C[Se]CC(=O)Nc1ccc([N+](=O)[O-])cc1)Nc1ccc([N+](=O)[O-])cc1`, in the data set on Leishmania amazonensis [17], the IC50 amounted to 10.8 µM.
Consider `c1ccc(-c2nn(-c3ccccc3)cc2C2=NCCS2)cc1`, for which the half-maximal inhibitory concentration (IC50) in the data set with Leishmania aethiopica was 1.02 mg/L (≈ 3.34 µM).
For `C#CCN1C(=O)CN(/N=C/c2ccc([N+](=O)[O-])o2)C1=O`, the IC50 came to 0.39 µM in the data set on Leishmania donovani [18] and 3.03 µM in the data set with Leishmania donovani [19]. For the same compound, the IC50 at 6 days in data set [20] is 88.5 µM.
As for `Cc1cc(O)c(C(=O)Nc2ccccc2)c(=O)n1Cc1ccc(Cl)cc1`, the IC50 in the data set on Leishmania donovani [7] worked out at 55 µM.
For `CC(C)=CC1=C(OC(=O)CCc2cn(-c3cccc(Cl)c3)nn2)C(=O)c2ccccc2C1=O`, the IC50 with Leishmania braziliensis stood at 16.7 µM.
For the compound `CCCCCCCn1cc(CN2C(=O)CN(/N=C/c3ccc([N+](=O)[O-])o3)C2=O)nn1`, the IC50 with Leishmania donovani [18] was found to be 0.38 µM; in the data set on Leishmania donovani [19], 0.18 µM. The IC50 at 6 days in data set [20] was over 100 µM.
In the case of `Cc1nc2ccc(Cl)cn2c1C(=O)N1CCN(Cc2cn(-c3ccc(Cl)cc3)nn2)CC1`, the IC50 in the data set with Leishmania major [9] was 15.1 µM.
Consider `CC1(C)CC(=O)c2cc(CNC(=O)CCCCCCCCBr)ccc2S1`, for which, in the data set on J774.A1, the CC50 turned out to be 58 µM. For the same compound, the IC50 with Leishmania infantum was determined as 7.2 µM.
Turning to `Nc1ccn(C(=O)C2CCC3(CC2)OOC2(O3)C3CC4CC(C3)CC2C4)n1` (stereo not given), the IC50 with Leishmania tropica is 161 µM. In addition, in data set [21], the selectivity ratio was under 5.
